The source of these data is patent publication US8415351B2 (priority 2007, dated 2013).

Assay [1] concerns the target T1, HCV polymerase 1A (Δ21 NS5B, H77) (Hepatitis C virus genotype 1a, UniProt P27958).
T1 construct: 20 to 50 nM Δ21 NS5B
Kind of assay: biochemical. The following applies: IC50 1a. An outline of the steps:
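Radiometric assay with Δ21 NS5B (H77): 20 μM CTP, 20 μM ATP, 1 μM ^3H-UTP, 5 nM template RNA, 2–4 h at room temperature. RNA precipitated with spermine, filter-captured and counted. IC50 from non-linear fit of retained cpm vs inhibitor concentration (tight-binding equation).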

The target of assay [2] is T2, HCV polymerase 1B (Δ21 NS5B, BK) (Hepatitis C virus genotype 1b, UniProt P26663).
T2 construct: 20 to 50 nM Δ21 NS5B
Briefly: biochemical. The method in brief:
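Δ21 NS5B (genotype 1b, BK […]) preincubated 15 min RT with inhibitor, 2 mM MnCl2, pH 7.4, 60–125 μM GTP; started with 20 μM CTP/ATP, 1 μM 3H-UTP, 5 nM template RNA, run 2–4 h RT. Spermine-precipitated RNA filter-captured, scintillation counted; IC50 from tight-binding (Morrison) fit.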

In assay [3] the test system is genotype 1a-H77 subgenomic replicon cell line. Kind of assay: microbe, parasite or virus in culture. The following applies: Hepatitis C virus, read-out: EC50 1a. It is filed as cell-based, HCV.
Assay [4] relates to genotype 1b-Con1 subgenomic replicon cell line. Briefly: microbe, parasite or virus in culture. The following applies: Hepatitis C virus, read-out: EC50 1b. Format: cell-based, HCV.

T1 sequence (P27958 2421-2990, stated change not applied): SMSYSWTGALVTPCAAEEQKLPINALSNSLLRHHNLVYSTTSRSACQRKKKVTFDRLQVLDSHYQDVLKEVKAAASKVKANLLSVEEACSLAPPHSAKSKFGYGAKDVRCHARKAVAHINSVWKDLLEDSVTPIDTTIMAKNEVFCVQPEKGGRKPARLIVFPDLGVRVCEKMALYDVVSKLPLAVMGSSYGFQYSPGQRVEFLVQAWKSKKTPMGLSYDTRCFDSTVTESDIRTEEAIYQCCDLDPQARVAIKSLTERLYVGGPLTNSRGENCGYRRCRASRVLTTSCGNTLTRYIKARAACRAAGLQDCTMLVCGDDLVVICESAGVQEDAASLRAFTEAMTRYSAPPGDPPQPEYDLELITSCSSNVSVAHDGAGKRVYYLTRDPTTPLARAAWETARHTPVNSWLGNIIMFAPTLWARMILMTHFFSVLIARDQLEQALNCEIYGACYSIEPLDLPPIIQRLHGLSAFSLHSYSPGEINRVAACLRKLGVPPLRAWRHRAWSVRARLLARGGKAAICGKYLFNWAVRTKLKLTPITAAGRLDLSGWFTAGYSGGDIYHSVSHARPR
T2 sequence (P26663 2420-2989, stated change not applied): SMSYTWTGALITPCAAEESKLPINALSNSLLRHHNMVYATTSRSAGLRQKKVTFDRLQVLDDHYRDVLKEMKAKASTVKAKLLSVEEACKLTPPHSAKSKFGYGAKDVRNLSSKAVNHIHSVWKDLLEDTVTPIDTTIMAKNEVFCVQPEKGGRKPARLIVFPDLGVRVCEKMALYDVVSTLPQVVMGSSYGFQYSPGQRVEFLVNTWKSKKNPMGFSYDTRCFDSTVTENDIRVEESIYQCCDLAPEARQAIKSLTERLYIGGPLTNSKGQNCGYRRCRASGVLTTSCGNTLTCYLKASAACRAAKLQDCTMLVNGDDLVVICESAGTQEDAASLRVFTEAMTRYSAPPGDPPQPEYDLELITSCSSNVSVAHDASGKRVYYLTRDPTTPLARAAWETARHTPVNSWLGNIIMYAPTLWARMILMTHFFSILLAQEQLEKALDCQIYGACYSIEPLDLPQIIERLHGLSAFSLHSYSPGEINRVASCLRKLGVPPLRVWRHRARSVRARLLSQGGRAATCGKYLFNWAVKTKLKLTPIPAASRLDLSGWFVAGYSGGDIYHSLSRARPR

As to `CCCC(=O)N(c1ccc(NC(=O)c2cc(N3CCC(=O)NC3=O)cc(C(C)(C)C)c2OC)cc1)S(C)(=O)=O` [IA-L3-1.71, 3-tert-butyl-5-(2,4-dioxotetrahydropyrimidin-1(2H)-yl)-2-methoxy-N-(4-(N-(methylsulfonyl)butyramido)phenyl)benzamide], the IC50 in assay [1] is 100 to 1000 nM; in assay [2], more than 1000 nM. Also, the EC50 lay in the range of 100 to 1000 nM in assay [3] and 10 to 100 nM in assay [4].

For `COc1c(C#Cc2ccc(NS(C)(=O)=O)c(Cl)c2)cc(N2CCC(=O)NC2=O)cc1C(C)(C)C` [IA-L2-1.15, N-(4-((3-tert-butyl-5-(2,4-dioxotetrahydropyrimidin-1(2H)-yl)-2-methoxyphenyl)ethynyl)-2-chlorophenyl)methanesulfonamide], the IC50 in assay [1] and in assay [2] was 10 to 100 nM each time. For the same compound, the EC50 in assay [3] and in assay [4] was 100 to 1000 nM in each case.

Turning to `Cc1cc(NS(C)(=O)=O)ccc1C#Cc1cc(N2CCC(=O)NC2=O)cc(C(C)(C)C)c1` [IA-L2-1.2, N-(4-((3-tert-butyl-5-(2,4-dioxotetrahydropyrimidin-1(2H)-yl)phenyl)ethynyl)-3-methyl-phenyl)methanesulfonamide], the IC50 in assay [1] and in assay [2] was less than 10 nM in each case. Also, the EC50 in assay [3] and in assay [4] was 10 to 100 nM throughout.

With `COc1c(-c2ccc3c(CNS(C)(=O)=O)coc3c2)cc(-n2ccc(=O)[nH]c2=O)cc1C(C)(C)C` [IB-L0-2.18, N-((6-(3-tert-butyl-5-(2,4-dioxo-3,4-dihydropyrimidin-1(2H)-yl)-2-methoxyphenyl)benzofuran-3-yl)methyl)methanesulfonamide], the results for the IC50 in assay [1] and in assay [2] were less than 10 nM and 10 to 100 nM, respectively. Moreover, the EC50 is 100 to 1000 nM in assay [3] and 10 to 100 nM in assay [4].

As to `COc1c(C(=O)Nc2ccc(NS(=O)(=O)Cc3ccccc3)cc2)cc(N2CCC(=O)NC2=O)cc1C(C)(C)C` [IA-L3-1.57, 3-tert-butyl-5-(2,4-dioxotetrahydropyrimidin-1(2H)-yl)-2-methoxy-N-(4-(phenylmethyl-sulfonamido)phenyl)benzamide], the IC50 in assay [1] lay within 10 to 100 nM; in assay [2], 100 to 1000 nM. Further, the EC50 in assay [3] and in assay [4] was 100 to 1000 nM each time.

Consider `COc1c(C#Cc2ccc(NS(C)(=O)=O)cc2)cc(N2CCC(=O)NC2=O)cc1C(C)(C)C` [IA-L2-1.8, N-(4-((3-tert-butyl-5-(2,4-dioxotetrahydropyrimidin-1(2H)-yl)-2-methoxyphenyl)ethynyl)-phenyl)methanesulfonamide], for which the IC50 in assay [1] and in assay [2] was less than 10 nM throughout. Besides, the EC50 in assay [3] was 10 to 100 nM; in assay [4], less than 10 nM.

For the compound `COc1c(-c2ccc3c(c2)CCC3NS(C)(=O)=O)cc(-n2ccc(=O)[nH]c2=O)cc1C(C)(C)C` (stereo not drawn) [IB-L0-2.44, N-(5-(3-tert-butyl-5-(2,4-dioxo-3,4-dihydropyrimidin-1(2H)-yl)-2-methoxyphenyl)-2,3-dihydro-1H-inden-1-yl)methanesulfonamide], the IC50 in assay [1] and in assay [2] was 100 to 1000 nM throughout. In addition, the EC50 in assay [3] and in assay [4] was more than 1000 nM each time.

For `COc1c(C(=O)Nc2ccccc2)cc(N2CCC(=O)NC2=O)cc1C(C)(C)C` [IA-L3-1.24, 3-tert-butyl-5-(2,4-dioxotetrahydropyrimidin-1(2H)-yl)-2-methoxy-N-phenylbenzamide], the IC50 in assay [1] and in assay [2] was 100 to 1000 nM throughout. For the same compound, the EC50 in assay [3] and in assay [4] was more than 1000 nM in each case.

For the compound `COc1c(-c2ccc(/C=N/NS(C)(=O)=O)c(F)c2F)cc(N2CCC(=O)NC2=O)cc1C(C)(C)C` [IA-L0-1.6, (E)-N′-((3′-tert-butyl-5′-(2,4-dioxotetrahydropyrimidin-1(2H)-yl)-2,3-difluoro-2′-methoxybiphenyl-4-yl)methylene)methanesulfonohydrazide], the IC50 in assay [1] and in assay [2] was 10 to 100 nM throughout. For the same compound, the EC50 in assay [3] was in the range of 100 to 1000 nM; in assay [4], 10 to 100 nM.

By IC50 is commonly meant the concentration that inhibits the measured activity by half. Higher therefore signals a need for much substance. By EC50 is commonly meant the midpoint of the concentration-response curve.
